Laboratory results published in patent US7064139B2, “Method for treating retroviral infections” (Uniroyal Chemical Company, Inc., priority 2001, dated 2006).
In brackets after ≈: the same amount, converted by molar mass. Read-outs that look alike come from different tables or passages of the source.

Assays:
Davis strain CMV = assay: Reduction of CMV-induced cytopathicity in HEL cells; format: cell-based, human cytomegalovirus (HCMV); settings: for Antiviral % Inhibition Davis strain CMV: estimate of percent protection at the concentration in the previous column; for EC50: read-out: Antiviral EC50 (ug/ml) Davis strain CMV
Summary of the method: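 Confluent HEL cells were infected with 100 PFU/well CMV for 1–2 h, then washed and kept in MEM with 2% FCS and test compound. EC50 is the concentration cutting virus-induced cytopathicity by 50% versus untreated control at day 7. Where cytotoxicity interfered, percent protection at the stated concentration is given.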

HIV-1 (IIIB) = assay: microbe, parasite or virus in culture; format: cell-based; settings: for HIV-1 % Protection: protection of CEM cells against virus-induced cytopathicity at the concentration in the previous column; for EC50: Human immunodeficiency virus 1, IIIB, CCRF-CEM, read-out: EC50 (ug/ml) HIV-1
Summary of the method: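 Human T-lymphoblast CEM cells at roughly 300,000 cells per ml were infected with about 100 CCID50 of HIV-1 (IIIB). Then 100 μl of the infected suspension went into 200 μl microtiter wells holding 100 μl of 5-fold serial compound dilutions. Inhibition of syncytium formation was scored microscopically on day four post infection, and protection against virus-induced cytopathicity was recorded.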

HIV-2 (ROD) = assay: Inhibition of HIV-2 syncytium formation in CEM cells; format: cell-based; settings: for HIV-2 % Protection: protection of CEM cells against virus-induced cytopathicity at the concentration in the previous column; for EC50: Human immunodeficiency virus 2, CCRF-CEM, read-out: EC50 (ug/ml) HIV-2
Summary of the method: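 Human T-lymphoblast CEM cells, suspended at roughly 300,000 cells per ml of culture medium, were infected with about 100 CCID50 of HIV-2 (ROD). Aliquots of 100 μl of infected cells were placed in 200 μl microtiter wells holding 100 μl of serial 5-fold compound dilutions, and syncytium formation was scored microscopically four days after infection.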

[1] = HEL cells, virus-induced cytopathicity after seven days
[2] = CEM cells, syncytium formation, day four post infection

Antiviral EC50 (ug/ml) Davis strain CMV (Davis strain CMV; [1]) [µg/mL]	EC50 (ug/ml) HIV-1 (HIV-1 (IIIB); [2])	EC50 (ug/ml) HIV-2 (HIV-2 (ROD); [2])	EC50 (Davis strain CMV; Human betaherpesvirus 5, 168 h, HEL cells, virus-induced cytopathicity after seven days) [µg/mL]	EC50 (HIV-1 (IIIB); [2]) [µg/mL]	EC50 (HIV-2 (ROD); [2]) [µg/mL]	Structure (SMILES)	Antiviral % Inhibition Davis strain CMV (Davis strain CMV; HEL cells) [%]	HIV-1 % Protection (HIV-1 (IIIB)) [%]	HIV-2 % Protection (HIV-2 (ROD)) [%]	EC50 (Davis strain CMV; Human betaherpesvirus 5, HEL, 168 h) [µg/mL]	EC50 (HIV-1 (IIIB)) [µg/mL]	EC50 (HIV-2 (ROD)) [µg/mL]
12.0	3.40 µg/mL (≈ 11.4 µM)	>4.0 µg/mL				Cc1ccc[n+]([O-])c1S(=O)(=O)Cc1ccccc1Cl [Compound 117]			0.0			
5.0	2.50 µg/mL (≈ 7.62 µM)	≧4 ug/ml				O=S(=O)(Cc1cccc(Br)c1)c1cccc[n+]1[O-] [Compound 38]			37.5			
>50	20.00 µg/mL (≈ 68.4 µM)	41.0 µg/mL (≈ 140 µM)				Cc1ccc(N)cc1C(C)S(=O)(=O)c1cccc[n+]1[O-] (centres unmarked) [Compound 1]	0.0					
			0.8 (≈ 2.5 µM)	1.4 (≈ 4.38 µM)	≥ 20	CCC(c1cc(C)ccc1C)S(=O)(=O)c1c(C)ccc[n+]1[O-] (centres unmarked) [Compound 79, 2-[[1-(2,5-dimethylphenyl)propyl]sulfonyl]-3-methylpyridine-1-oxide]			37.5			
20.0	9.50 µg/mL (≈ 33.5 µM)	9.5 µg/mL (≈ 33.5 µM)				O=S(=O)(Cc1ccc(Cl)cc1)c1cccc[n+]1[O-] [Compound 12]						

Second part, the compound before the results:

Structure (SMILES)	Antiviral EC50 (ug/ml) Davis strain CMV (Davis strain CMV; [1]) [µg/mL]	EC50 (ug/ml) HIV-1 (HIV-1 (IIIB); [2])	EC50 (ug/ml) HIV-2 (HIV-2 (ROD); [2])	EC50 (Davis strain CMV; Human betaherpesvirus 5, 168 h, HEL cells, virus-induced cytopathicity after seven days) [µg/mL]	EC50 (HIV-1 (IIIB); [2]) [µg/mL]	EC50 (HIV-2 (ROD); [2]) [µg/mL]	Antiviral % Inhibition Davis strain CMV (Davis strain CMV; HEL cells) [%]	HIV-1 % Protection (HIV-1 (IIIB)) [%]	HIV-2 % Protection (HIV-2 (ROD)) [%]	EC50 (Davis strain CMV; Human betaherpesvirus 5, HEL, 168 h) [µg/mL]	EC50 (HIV-1 (IIIB)) [µg/mL]	EC50 (HIV-2 (ROD)) [µg/mL]
[O-][n+]1ccccc1SCc1ccccc1 [Compound 4]	>50	≧100 ug/ml	>100 µg/mL				0.0	37.5	0.0			
Cc1ccc(C)c(C(C)[S+]([O-])c2ccccn2)c1 (centres unmarked) [Compound 163]	>50	3.25 µg/mL (≈ 12.5 µM)	>100 µg/mL				0.0		0.0			
Cc1ccc(C)c(CSc2ccccn2)c1 [Compound 148, 2-((2,5-dimethylphenyl)methylthio)pyridine]										0.4 (≈ 1.74 µM)	> 20	> 20
Cc1ccc(C[S+]([O-])c2cccc[n+]2[O-])cc1 (centres unmarked) [Compound 91]	34.5	>4 µg/mL	>4.0 µg/mL					0.0	0.0			
